According to patent publication US12071441B2, “10-(di(phenyl)methyl)-4-hydroxy-8,9,9A,10-tetrahydro-7H-pyrrolo[1′,2′:4,5]pyrazino[1,2-b]pyridazine-3,5-dione derivatives and related compounds as inhibitors of the orthomyxovirus replication for treating influenza” (Novartis AG, priority 2018, dated 2024):
pEC50: −log10 of the molar value.

Columns and labels:
Assay in all cases: microbe, parasite or virus in culture
Type in all cases: cell-based
[1] = system: influenza A virus minigenome (PB2, PB1, PA, NP; luciferase reporter) in 293T cells, RNP_Alaska; details: HEK-293T, 48 h
[2] = system: influenza A virus minigenome (PB2, PB1, PA, NP; luciferase reporter) in 293T cells, RNP_CAL; details: HEK-293T, 48 h, read-out: RNP_CAL_EC50
[3] = system: influenza A virus minigenome (PB2, PB1, PA, NP; luciferase reporter) in 293T cells, RNP_Hubei; details: HEK-293T, 48 h

O=C(Oc1c2n(ncc1=O)[C@@H]([C@H](c1ccccc1)c1cccc(F)c1F)[C@H]1CCCN1C2=O)C1CCOCC1 [Example 75, (9aR,10S)-10-((R)-(2,3-difluorophenyl)(phenyl)methyl)-3,5-dioxo-3,5,8,9,9a,10-hexahydro-7H-pyrrolo[1′,2′:4,5]pyrazino[1,2-b]pyridazin-4-yl tetrahydro-2H-pyran-4-carboxylate] was tested, and the pEC50 [1] was greater than 7.00, the pEC50 [2] was greater than 7.00 and the pEC50 [3] was greater than 7.00.

CC(=O)OCOc1c2n(ncc1=O)[C@@H]([C@H](c1ccccc1)c1cccc(F)c1F)[C@H]1CCCN1C2=O [Example 76, (((9aR,10S)-10-((R)-(2,3-difluorophenyl)(phenyl)methyl)-3,5-dioxo-3,5,8,9,9a,10-hexahydro-7H-pyrrolo[1′,2′:4,5]pyrazino[1,2-b]pyridazin-4-yl)oxy)methyl acetate] was tested, and the pEC50 [1] was greater than 7.00, the pEC50 [2] was greater than 7.00 and the pEC50 [3] was greater than 7.00.

Compound CCC(=O)OCOc1c2n(ncc1=O)[C@@H]([C@H](c1ccccc1)c1cccc(F)c1F)[C@H]1CCCN1C2=O [Example 77, (((9aR,10S)-10-((R)-(2,3-difluorophenyl)(phenyl)methyl)-3,5-dioxo-3,5,8,9,9a,10-hexahydro-7H-pyrrolo[1′,2′:4,5]pyrazino[1,2-b]pyridazin-4-yl)oxy)methyl propionate] has a pEC50 [1] greater than 7.00, a pEC50 [2] greater than 7.00 and a pEC50 [3] greater than 7.00.

In the case of Cc1oc(=O)oc1COc1c2n(ncc1=O)[C@@H]([C@H](c1ccc(F)cc1)c1cccc(F)c1F)[C@H]1CCCN1C2=O [Example 80, (9aR,10S)-10-((R)-(2,3-difluorophenyl)(4-fluorophenyl)methyl)-4-((5-methyl-2-oxo-1,3-dioxol-4-yl)methoxy)-8,9,9a,10-tetrahydro-7H-pyrrolo[1′,2′:4,5]pyrazino[1,2-b]pyridazine-3,5-dione], the pEC50 [1] was greater than 7.00, the pEC50 [2] was greater than 7.00 and the pEC50 [3] was greater than 7.00.

In the case of COC(=O)OCOc1c2n(ncc1=O)[C@@H]([C@H](c1ccc(F)cc1)c1cccc(F)c1F)[C@H]1CCCN1C2=O [Example 82, (((9aR,10S)-10-((R)-(2,3-difluorophenyl)(4-fluorophenyl)methyl)-3,5-dioxo-3,5,8,9,9a,10-hexahydro-7H-pyrrolo[1′,2′:4,5]pyrazino[1,2-b]pyridazin-4-yl)oxy)methyl methyl carbonate], the pEC50 [1] was greater than 7.00, the pEC50 [2] was greater than 7.00 and the pEC50 [3] was greater than 7.00.

CC(=O)Oc1c2n(ncc1=O)[C@@H]([C@H](c1ccc(F)cc1)c1cccc(F)c1F)[C@H]1CCCN1C2=O [Example 83, (9aR,10S)-10-((R)-(2,3-difluorophenyl)(4-fluorophenyl)methyl)-3,5-dioxo-3,5,8,9,9a,10-hexahydro-7H-pyrrolo[1′,2′:4,5]pyrazino[1,2-b]pyridazin-4-yl acetate] gave a pEC50 [1] greater than 7.00, a pEC50 [2] greater than 7.00 and a pEC50 [3] greater than 7.00.

CC(C)C(=O)Oc1c2n(ncc1=O)[C@@H]([C@H](c1ccc(F)cc1)c1cccc(F)c1F)[C@H]1CCCN1C2=O [Example 84, (9aR,10S)-10-((R)-(2,3-difluorophenyl)(4-fluorophenyl)methyl)-3,5-dioxo-3,5,8,9,9a,10-hexahydro-7H-pyrrolo[1′,2′:4,5]pyrazino[1,2-b]pyridazin-4-yl isobutyrate] gave a pEC50 [1] greater than 7.00, a pEC50 [2] greater than 7.00 and a pEC50 [3] greater than 7.00.

CN(C)C(=O)OCOc1c2n(ncc1=O)[C@@H]([C@H](c1ccc(F)cc1)c1cccc(F)c1F)[C@H]1CCCN1C2=O [Example 85, (((9aR,10S)-10-((R)-(2,3-difluorophenyl)(4-fluorophenyl)methyl)-3,5-dioxo-3,5,8,9,9a,10-hexahydro-7H-pyrrolo[1′,2′:4,5]pyrazino[1,2-b]pyridazin-4-yl)oxy)methyl dimethylcarbamate] gave a pEC50 [1] of no more than 6.00, a pEC50 [2] of 6.00 to 7.00 and a pEC50 [3] of 6.00 to 7.00.

COCCOC(=O)OCOc1c2n(ncc1=O)[C@@H]([C@H](c1ccc(F)cc1)c1cccc(F)c1F)[C@H]1CCCN1C2=O [Example 86, (((9aR,10S)-10-((R)-(2,3-difluorophenyl)(4-fluorophenyl)methyl)-3,5-dioxo-3,5,8,9,9a,10-hexahydro-7H-pyrrolo[1′,2′:4,5]pyrazino[1,2-b]pyridazin-4-yl)oxy)methyl (2-methoxyethyl) carbonate] showed a pEC50 [1] greater than 7.00, a pEC50 [2] greater than 7.00 and a pEC50 [3] greater than 7.00.

CC(C)OC(=O)Oc1c2n(ncc1=O)[C@@H]([C@H](c1ccc(F)cc1)c1cccc(F)c1F)[C@H]1CCCN1C2=O [Example 88, (9aR,10S)-10-((R)-(2,3-difluorophenyl)(4-fluorophenyl)methyl)-3,5-dioxo-3,5,8,9,9a,10-hexahydro-7H-pyrrolo[1′,2′:4,5]pyrazino[1,2-b]pyridazin-4-yl isopropyl carbonate] gave a pEC50 [1] greater than 7.00, a pEC50 [2] greater than 7.00 and a pEC50 [3] greater than 7.00.

CCOC(=O)OCOc1c2n(ncc1=O)[C@@H]([C@H](c1ccc(F)cc1)c1cccc(F)c1F)[C@H]1CCCN1C2=O [Example 92, (((9aR,10S)-10-((R)-(2,3-difluorophenyl)(4-fluorophenyl)methyl)-3,5-dioxo-3,5,8,9,9a,10-hexahydro-7H-pyrrolo[1′,2′:4,5]pyrazino[1,2-b]pyridazin-4-yl)oxy)methyl ethyl carbonate] was tested, and the pEC50 [1] was greater than 7.00, the pEC50 [2] was greater than 7.00 and the pEC50 [3] was greater than 7.00.

For CC(C)CC(=O)Oc1c2n(ncc1=O)[C@@H]([C@H](c1ccc(F)cc1)c1cccc(F)c1F)[C@H]1CCCN1C2=O [Example 93, (9aR,10S)-10-((R)-(2,3-difluorophenyl)(4-fluorophenyl)methyl)-3,5-dioxo-3,5,8,9,9a,10-hexahydro-7H-pyrrolo[1′,2′:4,5]pyrazino[1,2-b]pyridazin-4-yl 3-methylbutanoate], the pEC50 [1] was greater than 7.00, the pEC50 [2] was greater than 7.00 and the pEC50 [3] was greater than 7.00.

Compound COC(=O)OCOc1c2n(ncc1=O)[C@@H]([C@H](c1cccc(F)c1)c1cccc(F)c1F)[C@H]1CCCN1C2=O [Example 95, (((9aR,10S)-10-((R)-(2,3-difluorophenyl)(3-fluorophenyl)methyl)-3,5-dioxo-3,5,8,9,9a,10-hexahydro-7H-pyrrolo[1′,2′:4,5]pyrazino[1,2-b]pyridazin-4-yl)oxy)methyl methyl carbonate] has a pEC50 [1] greater than 7.00, a pEC50 [2] greater than 7.00 and a pEC50 [3] greater than 7.00.

With CN(C)C(=O)Oc1c2n(ncc1=O)[C@@H]([C@H](c1cccc(F)c1)c1cccc(F)c1F)[C@H]1CCCN1C2=O [Example 96, (9aR,10S)-10-((R)-(2,3-difluorophenyl)(3-fluorophenyl)methyl)-3,5-dioxo-3,5,8,9,9a,10-hexahydro-7H-pyrrolo[1′,2′:4,5]pyrazino[1,2-b]pyridazin-4-yl dimethylcarbamate] the pEC50 [1] was no more than 6.00, the pEC50 [2] was no more than 6.00 and the pEC50 [3] was 6.00 to 7.00.

COCCOC(=O)Oc1c2n(ncc1=O)[C@@H]([C@H](c1cccc(F)c1)c1cccc(F)c1F)[C@H]1CCCN1C2=O [Example 97, (9aR,10S)-10-((R)-(2,3-difluorophenyl)(3-fluorophenyl)methyl)-3,5-dioxo-3,5,8,9,9a,10-hexahydro-7H-pyrrolo[1′,2′:4,5]pyrazino[1,2-b]pyridazin-4-yl (2-methoxyethyl) carbonate] gave a pEC50 [1] greater than 7.00, a pEC50 [2] greater than 7.00 and a pEC50 [3] greater than 7.00.

With O=C(Oc1c2n(ncc1=O)[C@@H]([C@H](c1cccc(F)c1)c1cccc(F)c1F)[C@H]1CCCN1C2=O)N1CCCCC1 [Example 98, (9aR,10S)-10-((R)-(2,3-difluorophenyl)(3-fluorophenyl)methyl)-3,5-dioxo-3,5,8,9,9a,10-hexahydro-7H-pyrrolo[1′,2′:4,5]pyrazino[1,2-b]pyridazin-4-yl piperidine-1-carboxylate] the pEC50 [1] was no more than 6.00, the pEC50 [2] was no more than 6.00 and the pEC50 [3] was no more than 6.00.

In the case of COCCOC(=O)OCOc1c2n(ncc1=O)[C@@H]([C@H](c1cccc(F)c1)c1cccc(F)c1F)[C@H]1CCCN1C2=O [Example 99, (((9aR,10S)-10-((R)-(2,3-difluorophenyl)(3-fluorophenyl)methyl)-3,5-dioxo-3,5,8,9,9a,10-hexahydro-7H-pyrrolo[1′,2′:4,5]pyrazino[1,2-b]pyridazin-4-yl)oxy)methyl (2-methoxyethyl) carbonate], the pEC50 [1] was greater than 7.00, the pEC50 [2] was greater than 7.00 and the pEC50 [3] was greater than 7.00.

CN1CCN(C(=O)Oc2c3n(ncc2=O)[C@@H]([C@H](c2cccc(F)c2)c2cccc(F)c2F)[C@H]2CCCN2C3=O)CC1 [Example 100, (9aR,10S)-10-((R)-(2,3-difluorophenyl)(3-fluorophenyl)methyl)-3,5-dioxo-3,5,8,9,9a,10-hexahydro-7H-pyrrolo[1′,2′:4,5]pyrazino[1,2-b]pyridazin-4-yl 4-methylpiperazine-1-carboxylate] gave a pEC50 [1] of no more than 6.00, a pEC50 [2] of no more than 6.00 and a pEC50 [3] of 6.00 to 7.00.

O=C(Oc1c2n(ncc1=O)[C@@H]([C@H](c1cccc(F)c1)c1cccc(F)c1F)[C@H]1CCCN1C2=O)N1CCC(N2CCCCC2)CC1 [Example 102, (9aR,10S)-10-((R)-(2,3-difluorophenyl)(3-fluorophenyl)methyl)-3,5-dioxo-3,5,8,9,9a,10-hexahydro-7H-pyrrolo[1′,2′:4,5]pyrazino[1,2-b]pyridazin-4-yl [1,4′-bipiperidine]-1′-carboxylate] showed a pEC50 [1] of no more than 6.00, a pEC50 [2] of no more than 6.00 and a pEC50 [3] of no more than 6.00.

With COC(=O)C(C)(C)OC(=O)OCOc1c2n(ncc1=O)[C@@H]([C@H](c1cccc(F)c1)c1cccc(F)c1F)[C@H]1CCCN1C2=O [Example 104, methyl 2-((((((9aR,10S)-10-((R)-(2,3-difluorophenyl)(3-fluorophenyl)methyl)-3,5-dioxo-3,5,8,9,9a,10-hexahydro-7H-pyrrolo[1′,2′:4,5]pyrazino[1,2-b]pyridazin-4-yl)oxy)methoxy)carbonyl)oxy)-2-methylpropanoate] the pEC50 [1] was 6.00 to 7.00, the pEC50 [2] was 6.00 to 7.00 and the pEC50 [3] was 6.00 to 7.00.

CC(=O)Oc1c2n(ncc1=O)[C@@H]([C@H](c1cccc(F)c1)c1cccc(F)c1F)[C@H]1CCCN1C2=O [Example 105, (9aR,10S)-10-((R)-(2,3-difluorophenyl)(3-fluorophenyl)methyl)-3,5-dioxo-3,5,8,9,9a,10-hexahydro-7H-pyrrolo[1′,2′:4,5]pyrazino[1,2-b]pyridazin-4-yl acetate] showed a pEC50 [1] greater than 7.00, a pEC50 [2] greater than 7.00 and a pEC50 [3] greater than 7.00.
